What is called half-life is the time needed for the level to fall by half in the phase considered. The term IC50 denotes the concentration that gives 50% inhibition.

Calls of active or inactive are those of the source.

The values that follow come from ChEMBL document CHEMBL5370524, “Design and synthesis of a novel class of PDE4 inhibitors with antioxidant properties as bifunctional agents for the potential treatment of COPD” (Eur J Med Chem, 2023).

A short description of series [1]: Antioxidant activity assessed as DPPH radical scavenging activity at 10 uM by spectrophotometric analysis relative to control. In kind it is functional. A general note: DPPH is a stable violet radical that fades when it is reduced.
Series [2] in a line: Metabolic stability in human liver microsome assessed as half life measured upto 45 mins in presence of NADPH by LC-MS/MS analysis. The class given is ADME. Particulars: liver microsomes. (Liver microsomes are a subcellular fraction often used to study metabolism.)
A short description of series [3]: Metal chelating activity assessed as Fe2+-complex formation capacity at 0.1 to 1 mM by spectrophotometry analysis. Particulars: dose 0.1-1 mM.
Series [4] can be described thus: Metabolic stability in human liver microsome assessed as intrinsic clearance measured upto 45 mins in presence of NADPH by LC-MS/MS analysis. In kind it is ADME. Conditions: liver microsomes, read-out: CLH.
Series [5] has as its system RAW264.7. As to the kind of experiment: Antiinflammatory activity in LPS-induced mouse RAW264.7 cells assessed as inhibition of TNF-alpha production at 2.5 to 10 uM pretreated with compound for 1 hr followed by LPS-stimulation and measured after 12 hrs by ELISA analysis. Conditions: dose 2.5-10 µM, time 13.0 hrs. In kind it is functional, cell-based. In general terms: An ELISA detects its analyte on a solid surface through an enzyme-linked reagent.

For series [6], the species on record is Mus musculus. The series is described as follows: Antioxidant activity in Fe2+-induced mouse assessed as inhibition of MDA production in lung homogenate at 250 to 1000 uM incubated for 60 mins. The class given is functional. Conditions: dose 250-1000 µM.
Series [7] can be described thus: Metal chelating activity assessed as Fe3+-reducing capacity at 0.006 to 0.2 mM incubated for 30 mins by spectrophotometry analysis. Conditions: dose 0.006-0.2 mM.
In series [8] the test system is Mus musculus. As to the kind of experiment: Antiinflammatory activity in LPS-induced ICR mouse model assessed as reduction in TNF-alpha production in serum at 50 mg/kg, ip pretreated with compound for 1 hr followed by LPS-induction and measured after 60 mins ny ELISA analysis. In kind it is functional. More on the design: scale not given: the % may be the effect or the level left. Particulars: time 2 hrs.

The subject of series [9] is RAW264.7. As to the kind of experiment: Cytotoxicity against LPS-induced mouse RAW264.7 cells assessed as reduction in cell viability at 2.5 to 10 uM measured after 12 hrs by CCK-8 assay. In kind it is toxicity, cell-based. Conditions: raw264.7, 12 h, dose 2.5-10 µM.
Another series deals with Phosphodiesterase 4 (Homo sapiens, UniProt P27815+Q08499+Q07343+Q08493). The series is described as follows: Inhibition of PDE4 (unknown origin) using fluorescein-cAMP as substrate incubated for 45 mins by fluorescence polarization assay. In kind it is protein assay.
Series [10] is described as follows: Antioxidant activity assessed as DPPH radical scavenging activity by spectrophotometric analysis. In kind it is functional.
For series [11], the system named is Mus musculus. As to the kind of experiment: Antiinflammatory activity in LPS-induced ICR mouse model assessed as reduction in TNF-alpha production in serum at 100 mg/kg, ip pretreated with compound for 1 hr followed by LPS-induction and measured after 60 mins ny ELISA analysis. In kind it is functional. Also noted: scale not given: the % may be the effect or the level left. Conditions: time 2 hrs.

Series [12] concerns Mus musculus. As to the kind of experiment: Antiinflammatory activity in LPS-induced ICR mouse model assessed as reduction in TNF-alpha production in serum at 10 mg/kg, ip pretreated with compound for 1 hr followed by LPS-induction and measured after 60 mins ny ELISA analysis. The class given is functional. More on the design: scale not given: the % may be the effect or the level left. Particulars: time 2 hrs.

For the molecule `COc1ccc(/C=C2\Oc3cc(O)ccc3C2=O)cc1OCC1CC1`, the outcome in series [1] was inactive.

On to `COc1ccc(/C=C/C(=O)c2ccc(O)c(O)c2)cc1OCC1CC1`, for which the half-life in [2] is 48 min. For the same molecule, the outcome (in series [3]; with RAW264.7 [5]; in the series listed under Mus musculus [6]; in series [7]) was Active. The CLint scaled in [4] turned out to be 36.2 mL/min/kg. The figures for the Activity in the series with Mus musculus [8], in the series on RAW264.7 [9] and with Mus musculus [11] were 20.2%, “Non-Toxic” and 54.7%, respectively. In addition, the results for the 50% inhibitory concentration (IC50) (against Phosphodiesterase 4; in series [10]) were 1.56 µM and 6.97 µM, respectively.

With `O=C(/C=C/c1ccc(O)c(O)c1)c1ccc(O)cc1`, the Activity in series [1] came to 60.4%.

For `COc1ccc(/C=C/C(=O)c2ccc(O)c(O)c2)cc1OC(C)C`, the result in the series on RAW264.7 [5] and in the series listed under Mus musculus [6] was Active. The Activity entry in the series with RAW264.7 [9] is “Non-Toxic”. In addition, the values for the IC50 (against Phosphodiesterase 4; in [10]) were 1.53 µM and 6.36 µM, respectively.

Take `COc1ccc(/C=C/C(=O)c2ccc(O)c(O)c2)cc1OC`: the result in the series on RAW264.7 [5] and in the series listed under Mus musculus [6] was Active. Further, the Activity result in the series on RAW264.7 [9] is recorded as “Non-Toxic”. Moreover, the half-maximal inhibitory concentration (IC50) against Phosphodiesterase 4 is 2.78 µM; in [10], 10.9 µM.

`COc1ccc(/C=C2\Oc3cc(O)ccc3C2=O)cc1OC`: in series [1], the outcome was inactive.

`COc1ccc2c(c1)OC/C(=C\c1ccc(O)c(OC)c1)C2=O`: the result in series [1] was inactive.

For `O=C1/C(=C/c2ccc(O)c(O)c2)COc2cc(O)ccc21`, the Activity in series [1] was 48.3%.

`COc1ccc(/C=C/C(=O)c2ccc(O)c(O)c2)cc1OC1CCCC1`: the result with RAW264.7 [5] and in the series listed under Mus musculus [6] was Active. The Activity entry in the series on RAW264.7 [9] is given as “Non-Toxic”. In addition, the IC50 on Phosphodiesterase 4 was found to be 1.82 µM; in [10], 5.95 µM.

Consider `CC1=NN(c2ccccc2)C(=O)C1`, for which the Activity in series [1] was 23.6%.

Regarding `O=C1/C(=C/c2ccc(O)c(O)c2)Oc2cc(O)ccc21`, in series [1], the Activity is 30.2%.

With `COc1ccc(/C=C2\COc3cc(O)ccc3C2=O)cc1O`, in [1], the outcome was inactive.

On to `COc1ccc(/C=C2\COc3cc(O)ccc3C2=O)cc1OCC1CC1`, for which the outcome in series [1] was inactive.

For the molecule `COc1ccc(/C=C2\COc3cc(O)ccc3C2=O)cc1OC`, the outcome in series [1] was inactive.

Turning to `COc1cc(/C=C2\COc3cc(O)ccc3C2=O)ccc1O`, the outcome in series [1] was inactive.

For the molecule `CCOc1cc(/C=C/C(=O)c2ccc(O)c(O)c2)ccc1OC`, the result in the series with RAW264.7 [5] and in the series filed under Mus musculus [6] was Active. The Activity result with RAW264.7 [9] is reported as “Non-Toxic”. Also, the concentration for half-maximal inhibition (IC50) at Phosphodiesterase 4 stood at 1.45 µM; in series [10], 6.2 µM.

Turning to `O=C(c1ccc(F)cc1)C1CCN(CCn2c(=O)[nH]c3ccccc3c2=O)CC1` [KETANSERIN], the half-life in series [2] came out at 31.1 min. For the same molecule, in series [4], the CLint scaled was found to be 56 mL/min/kg.

On to `COc1ccc(/C=C/C(=O)c2ccc(O)cc2)cc1OC`, for which the result in [1] was inactive.

In the case of `COc1ccc2c(c1)OC/C(=C\c1ccc(O)c(O)c1)C2=O`, in [1], the Activity worked out at 49.6%.

On to `COc1ccc(/C=C/C(=O)c2ccc(O)cc2)cc1OCC1CC1`, for which the outcome in series [1] was inactive.

Take `COc1ccc(C2CNC(=O)C2)cc1OC1CCCC1` (stereo not drawn) [ROLIPRAM]: the Activity in the series with Mus musculus [12] was 55.1%.
